# Test results as given in patent publication US20070117743A1, “New antitumoral compounds” (priority 2003, published 2007).
# Where two headings read alike, the source gives them in different places.
# Key:
# Format in all cases: cell-based, human
# A-549 = assay: SRB colorimetric assay of cell growth and viability, A-549; details: A-549, 48 hours exposure; for GI50: read-out: GI50 A-549; for CC50: read-out: LC50 A-549
# SK-MEL-28 = assay: SRB colorimetric assay of cell growth and viability, SK-MEL-28; details: 48 hours exposure; for CC50: read-out: LC50 MEL-28
# HT-29 = assay: SRB colorimetric assay of cell growth and viability, HT-29; details: HT-29, 48 hours exposure; for GI50: read-out: GI50 HT-29; for CC50: read-out: LC50 HT-29
# LoVo = assay: SRB colorimetric assay of cell growth and viability, LoVo; details: LOVO, 48 hours exposure; for CC50: read-out: LC50 LOVO
# LoVo-Dox = assay: SRB colorimetric assay of cell growth and viability, LoVo-Dox; details: LOVO-DOX, 48 hours exposure; for CC50: read-out: LC50 LOVO-DOX
# Method in brief: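 Here, cells grow drug-free for 18 h, then receive sample dilutions from 10 down to 10^−8 μg/mL for 48 h at 37° C. Protein-bound SRB is solubilized in Tris and quantified at 490 nm.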
# DU-145 = assay: SRB colorimetric assay of cell growth and viability, DU-145; details: 48 hours exposure
# LNCaP = assay: SRB colorimetric assay of cell growth and viability, LNCaP; details: 48 hours exposure; for CC50: read-out: LC50 LN-caP
# SK-BR-3 = assay: SRB colorimetric assay of cell growth and viability, SK-BR-3; details: 48 hours exposure
# IGROV-1 = assay: SRB colorimetric assay of cell growth and viability, IGROV-1; details: 48 hours exposure
# IGROV-ET = assay: SRB colorimetric assay of cell growth and viability, IGROV-ET; details: 48 hours exposure; for CC50: read-out: LC50 IGROV-ET
# HeLa = assay: SRB colorimetric assay of cell growth and viability, HeLa; details: HELA, 48 hours exposure; for CC50: read-out: LC50 HELA
# HeLa-APL = assay: SRB colorimetric assay of cell growth and viability, HeLa-APL; details: HELA-APL, 48 hours exposure; for CC50: read-out: LC50 HELA-APL
# K-562 = assay: SRB colorimetric assay of cell growth and viability, K-562; details: K-562, 48 hours exposure; for CC50: read-out: LC50 K-562
# PANC-1 = assay: SRB colorimetric assay of cell growth and viability, PANC-1; details: PANC-1, 48 hours exposure; for CC50: read-out: LC50 PANC-1
smiles,measurement,setting,value
"C/C=C1\NC(=O)[C@H](Cc2ccccc2Cl)NC(=O)[C@@H](C(C)C)NC(=O)[C@@H]([C@@H](C)CC)NC(=O)[C@H](NC(=O)[C@H](NC(=O)[C@H](CCCN)NC(=O)[C@H]2CCCN2C(=O)[C@H](NC(=O)[C@@H](NC(=O)[C@@H](NC(=O)[C@H](NC(=O)CCCC(C)C)C(C)C)[C@@H](C)O)C(C)C)C(C)C)[C@@H](C)CC)[C@@H](C)OC(=O)[C@H](C(C)C)NC1=O [Compound 81, [Phe(2-Cl)^3]-KF]",TGI A-549,A-549,9.04E−07 Molar
same,GI50,A-549,457 nM
same,CC50,A-549,1570 nM
same,GI50,SK-MEL-28; MEL-28,362 nM
same,TGI MEL-28,SK-MEL-28; MEL-28,8.73E−07 Molar
same,CC50,SK-MEL-28; MEL-28,1680 nM
same,TGI HT-29,HT-29,2.23E−07 Molar
same,GI50,HT-29,102 nM
same,CC50,HT-29,543 nM
same,GI50,LoVo,89.2 nM
same,TGI LOVO,LoVo,1.72E−07 Molar
same,CC50,LoVo,445 nM
same,GI50,LoVo-Dox,70.1 nM
same,TGI LOVO-DOX,LoVo-Dox,1.20E−07 Molar
same,CC50,LoVo-Dox,369 nM
same,GI50,DU-145; DU-145,242 nM
same,LC50 (concentration causing 50% net cell kill),DU-145; DU-145,1210 nM
same,TGI DU-145,DU-145; DU-145,6.83E−07 Molar
same,GI50,LNCaP; LN-caP,75.6 nM
same,TGI LN-caP,LNCaP; LN-caP,3.87E−07 Molar
same,CC50,LNCaP; LN-caP,1270 nM
same,GI50,SK-BR-3; SK-BR-3,61.2 nM
same,LC50,SK-BR-3; SK-BR-3,664 nM
same,TGI SK-BR-3,SK-BR-3; SK-BR-3,1.18E−07 Molar
same,GI50,IGROV-1; IGROV,86.7 nM
same,LC50 (concentration causing 50% net cell killing),IGROV-1; IGROV,596 nM
same,TGI IGROV,IGROV-1; IGROV,2.09E−07 Molar
same,GI50,IGROV-ET; IGROV-ET,100 nM
same,TGI IGROV-ET,IGROV-ET; IGROV-ET,2.40E−07 Molar
same,CC50,IGROV-ET; IGROV-ET,639 nM
same,GI50,HeLa,199 nM
same,TGI HELA,HeLa,6.33E−07 Molar
same,CC50,HeLa,1440 nM
same,GI50,HeLa-APL,342 nM
same,TGI HELA-APL,HeLa-APL,7.87E−07 Molar
same,CC50,HeLa-APL,1840 nM
same,GI50,K-562,1840 nM
same,TGI K-562,K-562,1.84E−06 Molar
same,CC50,K-562,1840 nM
same,GI50,PANC-1,1400 nM
same,TGI PANC-1,PANC-1,1.84E−06 Molar
same,CC50,PANC-1,1840 nM
"C/C=C1\NC(=O)[C@H](Cc2ccccc2)NC(=O)[C@@H](C(C)C)NC(=O)[C@@H]([C@@H](C)CC)NC(=O)[C@H](NC(=O)[C@H](NC(=O)[C@H](CCCNC(=O)CCCC[C@@H]2SC[C@@H]3NC(=O)N[C@@H]32)NC(=O)[C@H]2CCCN2C(=O)[C@H](NC(=O)[C@@H](NC(=O)[C@@H](NC(=O)[C@H](NC(=O)CCCC(C)C)C(C)C)[C@@H](C)O)C(C)C)C(C)C)[C@@H](C)CC)[C@@H](C)OC(=O)[C@H](C(C)C)NC1=O [Compound 99, [Orn(Biot)^8]-Kahalalide F]",TGI A-549,A-549,2.05E−06 Molar
same,GI50,A-549,886 nM
same,CC50,A-549,4760 nM
same,GI50,SK-MEL-28; SRB,839 nM
same,TGI MEL-28,SK-MEL-28; SRB,1.73E−06 Molar
same,CC50,SK-MEL-28; SRB,3540 nM
same,TGI HT-29,HT-29,2.41E−07 Molar
same,GI50,HT-29,124 nM
same,CC50,HT-29,467 nM
same,GI50,LoVo,129 nM
same,TGI LOVO,LoVo,2.53E−07 Molar
same,CC50,LoVo,495 nM
same,GI50,LoVo-Dox,139 nM
same,TGI LOVO-DOX,LoVo-Dox,3.10E−07 Molar
same,CC50,LoVo-Dox,3930 nM
same,GI50,DU-145; SRB,757 nM
same,LC50 (concentration causing 50% net cell kill),DU-145; SRB,3260 nM
same,TGI DU-145,DU-145; SRB,1.57E−06 Molar
same,TGI LN-caP,LNCaP; SRB,1.99E−06 Molar
same,GI50,"LNCaP; SRB, read-out: GI50 LN-caP",1020 nM
same,CC50,LNCaP; SRB,3890 nM
same,GI50,SK-BR-3; SRB,140 nM
same,LC50,SK-BR-3; SRB,575 nM
same,TGI SK-BR-3,SK-BR-3; SRB,2.84E−07 Molar
same,GI50,IGROV-1; SRB,268 nM
same,LC50 (concentration causing 50% net cell killing),IGROV-1; SRB,2690 nM
same,TGI IGROV,IGROV-1; SRB,8.98E−07 Molar
same,GI50,IGROV-ET; SRB,874 nM
same,TGI IGROV-ET,IGROV-ET; SRB,1.88E−06 Molar
same,CC50,IGROV-ET; SRB,4040 nM
same,GI50,HeLa,329 nM
same,TGI HELA,HeLa,1.19E−06 Molar
same,CC50,HeLa,3510 nM
same,GI50,HeLa-APL,951 nM
same,TGI HELA-APL,HeLa-APL,2.10E−06 Molar
same,CC50,HeLa-APL,4650 nM
same,GI50,K-562,3300 nM
same,TGI K-562,K-562,5.87E−06 Molar
same,CC50,K-562,5870 nM
same,GI50,PANC-1,1500 nM
same,TGI PANC-1,PANC-1,3.50E−06 Molar
same,CC50,PANC-1,5870 nM
